In patent US11685710B2, “Cationic sulfonamide amino lipids and amphiphilic zwitterionic amino lipids” (The Board of Regents of the University of Texas System, priority 2016, dated 2023):

Key:
IGROV1 cells = assay: mRNA delivery in vitro assay (luciferase / mCherry mRNA); assay type: cell-based, human
Method: ZAL mRNA delivery in vitro assay: ZAL nanoparticles with firefly luciferase mRNA (Tri-Link Biotechnologies) were prepared using the in vitro nanoparticle formulation method outlined above. IGROV1 cells were seed in white opaque 96-well tissue culture plates at a seeding density of 5×10^3 cells per well in 100 μL RPMI 1640 medium supplemented with 5% FBS, and allowed to attach overnight. After overnight incubation, and additional 100 μL medium was added to the wells. The ZAL:mRNA nanoparticles were prepared at a ZAL:mRNA weight ratio of 20:1, 10:1, 7.5:1 and 5:1, and lipid mixture molar compositions of 50:38.5 ZAL:cholesterol, with PEG lipid supplemented at a molar ratio of 5%, 2%, 1% or 0.5% at each weight ratio. The ZAL-mRNA nanoparticles were added to the cells at a dose of 100 ng mRNA per well and incubated for the indicated time (ranging from 6 h to 48 h), after which time cell viability and luciferase expression were evaluated with the ONE-Glo+Tox Assay cell viability and luciferase assay (Promega) and normalized to untreated cells (N=4+/−standard deviation)
ZNPs with mRNA (Tri-Link Biotechnologies) were prepared using the in vitro nanoparticle formulation method outlined above. IGROV1 cells were seeded in white opaque 96-well tissue culture plates at a seeding density of 5×10^3 cells per well in 100 μL RPMI 1640 medium supplemented with 5% FBS, and allowed to attach overnight. After overnight incubation, an additional 100 μL medium was added to the wells. The ZAL:mRNA nanoparticles were prepared at ZAL:mRNA weight ratios of 20:1, 10:1, 7.5:1 and 5:1, and lipid mixture molar compositions of 50:38.5:n ZAL:cholesterol:PEG-lipid, where n=5, 2, 1, and 0.5 at each weight ratio. The ZAL-mRNA nanoparticles were added to the cells at the appropriate mRNA dose and incubated for the indicated time (ranging from 6 h to 48 h), after which time cell viability and luciferase expression were evaluated with the ONE-Glo+Tox Assay (Promega) and normalized to untreated cells (N=4+/−standard deviation).

[1] = test system: HeLa-Luc-Cas9 cells; IGROV1 cells; assay: Delivery efficacy of ZA3-Ep10 versus cationic structural analogue (siLuc, sgLuc, Luc mRNA); assay type: cell-based; conditions: siRNA, sgRNA and mRNA cargos; 7.5:1 weight ratio
Method: The ZNP or LNP formulation was fixed at 7.5:1 weight ratio ZAL or Cationic analogue to RNA. The lipid mixture for the NPs was 50:38.5:0.5 ZAL or cationic analogue: cholesterol: PEG-lipid, while for the A3-Ep14 NPs the zwitterionic phospholipid was titrated from 0 to 50% in the lipid mix. The nanoparticles were formulated by manual mixing using the in vitro formulation protocol. RNA binding was determined by the Ribogreen assay (N=3+/−standard deviation), while nanoparticle size was determined by dynamic light scattering (N=3+/−standard deviation). Luciferase silencing or editing of siLuc and sgLuc NPs was assayed in HeLa-Luc-Cas9 cells (7.35 nM sgRNA, 17.9 nM siRNA), while luciferase expression by Luc mRNA NPs was evaluated in IGROV1 cells (0.77 nM mRNA). Cells were assays after 40 h incubation time by the One-Glo+Tox assay and plotted with viability (dots) and luciferase expression (bars) as mean+/−standard deviation (N=4).

A549-Luc cells = assay: Cas9 mRNA delivery: mRNA level (RT-qPCR) and Cas9 protein expression (western blot); assay type: cell-based; conditions: for level of Cas9 mRNA: A549 lung cancer cells
Method: The cells were lysed in cold RIPA buffer (Thermo Scientific), the lysate cleared by centrifugation and total protein in the supernatant quantified by the BCA assay (Pierce). 50 μg total protein was loaded on 4-20% precast polyacrylamide gel and transferred to a nitrocellulose membrane (BioRad). The membrane was blocked in 5% nonfat milk for 1 hour at RT, and then incubated with primary antibody at 4° C. overnight (Cas9 antibody, 1:1000, Cell Signaling, 14697S; beta-actin antibody, 1:2000, Cell Signaling, 4970). Secondary antibodies were applied at RT for 1 hour (anti-rabbit IgG, HRP-linked antibody, Cell Signaling, 7074, anti-mouse IgG, HRP-linked antibody, Cell Signaling, 7076), and then the membrane was developed and detected on X-ray film.
Cells were transfected with Cas9 mRNA for the indicated time point in a 6-well plate and 0.5 μg/mL mRNA for the indicated time point. Total RNA was extracted using the TRIzol reagent according to the manufacturer's protocol. The RNA was reverse transcribed using the iScript Reverse Transcription kit (BioRad) and the real-time qPCR was run on a Bio-Rad C1000 Touch Thermal Cycler (CFX384 Real-time System). Each reaction was made with iTaq Universal SYBR Green 2× Supermix (Bio-Rad). The qPCR program is as follows:
Human β-actin was used as a control and mRNA levels were normalized to fold actin and plotted as an average of two independent experiments.

CCCCCCCCC(O)CN(CCC(=O)NCC[N+](C)(C)CCCS(=O)(=O)[O-])CCN(CCN(CC(O)CCCCCCCC)CC(O)CCCCCCCC)CCN(CC(O)CCCCCCCC)CC(O)CCCCCCCC (centres unmarked) [ZA3-Ep10]
delivery efficacy of mRNA versus PEG lipid ratio (IGROV1 cells; PEG-lipid 5, 2, 1 or 0.5 in lipid mix): decreased with higher PEG lipid ratios | luciferase expression versus mRNA dose (IGROV1 cells; luciferase mRNA (~2,000 nt), IGROV1 cells): dose-dependent | mRNA dose required for high expression (IGROV1 cells; luciferase mRNA, IGROV1 cells): < 600 pM | mCherry expression (IGROV1 cells; mCherry mRNA (~1,000 nt), IGROV1 cells): Bright mCherry expression | efficacy compared with cationic analogue [1]: outperformed the cationic analogue supplemented with phospholipid | time of highest Cas9 protein expression (A549-Luc cells; A549 cells, low at 4 h, increased by 12 h): 36 h | level of Cas9 mRNA (A549-Luc cells; after 4 h incubation): > 4 fold actin | level of Cas9 mRNA (A549-Luc cells; over the next 45 h): 0.7 fold actin
